Measured values from patent US6906205B2, “Spiro and dispiro 1,2,4-trioxolane antimalarials” (Medicines for Malaria Venture MMV, priority 2002, dated 2005).
≈ marks a conversion by molar mass, not a printed value.

What was measured:
[1] = tested on: P. falciparum NF54 strain (sensitive to standard antimalarials); assay: semiautomated microdilution assay, [3H]-hypoxanthine incorporation, NF54 strain; type: cell-based, Plasmodium falciparum; settings: NF54 strain, 72 h incubation
Procedure, shortened: (§1)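 Compounds were tested against intraerythrocytic parasites taken from asynchronous stock cultures, using semiautomated microdilution. IC50 values were estimated by logit regression analysis.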

[2] = tested on: P. falciparum K1 strain (Thailand resistant to chloroquine); assay: semiautomated microdilution assay, [3H]-hypoxanthine incorporation, K1 strain; type: cell-based, Plasmodium falciparum; settings: K1 strain, 72 h incubation
Procedure, shortened: as §1

[3] = tested on: ANKA strain of Plasmodium berghei; assay: single dose ED50/ED90/ED99 determinations in infected mice; type: in vivo; settings: single dose po in SSV, mice, percent reduction in parasitemia on day three post-infection
Method: In the single dose ED50/ED90/ED99 determinations, Moro SPF or NMRI mice (group of three) infected with the ANKA strain of Plasmodium berghei were treated on day one post-infection. […] The SSV consists of 0.5% w/v CMC, 0.5% v/v benzyl alcohol, 0.4% v/v Tween 80, and 0.9% w/v sodium chloride in water. Antimalarial activity was measured by percent reduction in parasitemia on day three post-infection. The ED50/ED90 values were calculated by nonlinear fitting.

[4] = tested on: ANKA strain of P. berghei; assay: single dose STI in vivo screen in infected mice; design: species or system Plasmodium berghei; settings: for Activity (%) po / Activity (%) sc / Activity (%) SSVpo / Activity (%) 3 mg/kg SSV po / Activity (%) 10 mg/kg SSV po: percent reduction in parasitemia day 3 post-infection; for Activity (%) po / Survival (days) po: single 10 mg/kg po in 3% ethanol and 7% Tween 80; for Activity (%) po / Activity (%) sc / Activity (%) SSVpo: mice; for Activity (%) sc / Survival (days) sc: single 10 mg/kg sc in 3% ethanol and 7% Tween 80; for Activity (%) SSVpo: single po dose in standard suspending vehicle (SSV); for Survival (days) po / Survival (days) sc / Survival (days) SSVpo: untreated control 5.6 ± 0.3; for Survival (days) SSVpo: single po dose in SSV; for Activity (%) 3 mg/kg SSV po: single 3 mg/kg po in SSV
Procedure, shortened: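 Groups of 3-5 Moro SPF or NMRI mice infected with the ANKA strain of P. berghei received a single dose of trioxolane on day one post-infection. The compound was given in 3% ethanol and 7% Tween 80 or in SSV (0.5% w/v CMC, 0.5% v/v benzyl alcohol, 0.4% v/v Tween 80, 0.9% w/v sodium chloride in water). Antimalarial activity was scored as percent reduction in parasitemia on day three and as survival time versus untreated controls. Survival to day 30 counted as cure.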

P. berghei ANKA strain = assay: treatment: 3x3 mg/kg and 3x1 mg/kg po divided doses in infected mice; type: in vivo, Plasmodium berghei; settings: for infected mice cured: 3×3 mg/kg po on days 1, 2, 3 post-infection; for infected mice cured / activity (percent reduction of parasitemia): SSV; for activity (percent reduction of parasitemia): 3×1 mg/kg po on days 1, 2, 3 post-infection; for Activity (%) p.o. SSV: percent reduction of parasitemia day 4
Method: Moro NMRI male mice (Fü Albino specific pathogen free) weighing 18±2 g were infected intravenously (i.v.) with 2×10^7 P. berghei ANKA strain-infected erythrocytes from donor mice on day 0 of the experiment. From donor mice with circa 30% parasitemia, heparinized blood was taken and diluted in physiological saline to 10^8 parasitized erythrocytes per ml. An aliquot (0.2 ml) of this suspension was injected i.v. into experimental and control groups of mice. In untreated control mice, parasitemia rose regularly to 40 to 50% by day 3 post-infection and 70 to 80% by day 4 post-infection. The mice died between days 5 and 7 post-infection. Throughout the experiments, mice were kept in groups of three or five animals in Makrolon type II cages in an air-conditioned animal room at 22 to 23° C. A diet with p-aminobenzoic acid (PABA) of 45 mg (NAFAG FUTTER© food N^o 9009 PAB-45) per kg of body weight, and tap water is available ad libitum.
OZ compounds were prepared at an appropriate concentration, either as a solution or a suspension containing SSV (0.5% w/v CMC, 0.5% v/v benzyl alcohol, 0.4% v/v Tween 80, and 0.9% w/v sodium chloride in water). They were administered per os (p.o.) in a total volume of 0.01 ml per gram of mouse. The activity of the compound was determined by a variety of methods outlined in subsequent sections. Survival time was also recorded, and survival to day 30 post-infection was considered to be a cure.
The second experiment consists of administration of divided 3×3 mg/kg and 3×1 mg/kg po doses administered on days 1, 2, and 3 post-infection. On day 4 post-infection, blood smears of all animals were prepared and stained with Giemsa. Parasitemia was determined microscopically, and the difference between the mean value of the control group (taken as 100%) and those of the experimental groups was calculated and expressed as percent reduction. Compounds were administered orally in the SSV vehicle.

[5] = tested on: Schistosoma mansoni adult schistosomes (49-day-old); assay: effect on adult schistosomes (49-day-old) in mice; type: in vivo; settings: single 400 mg/kg per os
Method: Mice were infected with 100 Schistosoma mansoni cercariae […]. Each group was treated per os with OZ compounds at single doses of 200, 400, and 600 mg/kg. […] All groups were killed 4 weeks after treatment and the liver and intestine were removed and separated. The liver and intestine were compressed and alive male and female worms could be seen and counted.

[6] = tested on: Schistosoma mansoni 21-day-old schistosomules; assay: effect on 21-day-old schistosomules in mice; type: in vivo; settings: single 200 mg/kg per os, female mice
Method: All groups were killed 4 weeks after treatment and the liver and intestine were removed and separated. The liver and intestine were compressed and alive male and female worms could be seen and counted. The effect of the compounds was evaluated by mean total and female worm burden.

[7] = 3 × 1 mg/kg days 1, 2, 3 post-infection
[8] = 3 × 3 mg/kg days 1, 2, 3 post-infection

## c1ccc(C2CCC3(CC2)OOC2(O3)C3CC4CC(C3)CC2C4)cc1 (centres unmarked) [OZ27]
[1]; Plasmodium falciparum, read-out: IC50 (ng/ml) NF54
  IC50: 4.8 ng/mL (≈ 14.1 nM)
[2]; Plasmodium falciparum, read-out: IC50 (ng/ml) K1
  IC50: 2.2 ng/mL (≈ 6.46 nM)
[3]
  ED90: 5.7 mg/kg
  ED99: 9.9 mg/kg
[4]
  Activity (%) po: 99.97%
  Activity (%) sc: 99.92%
  Activity (%) SSVpo: 96%
  Survival (days) po: 12.6 days
  Survival (days) sc: 17.1 days
  Survival (days) SSVpo: 8.0 days

## NC1CCN(C(=O)C[C@H]2CC[C@]3(CC2)OO[C@]2(O3)C3CC4CC(C3)CC2C4)CC1 [OZ339]
P. berghei ANKA strain
  infected mice cured: ⅗
[4]
  Activity (%) 3 mg/kg SSV po: 99.65%
[4]; single 10 mg/kg po in SSV
  Activity (%) 10 mg/kg SSV po: 99.95%

## NCCC(=O)NC[C@H]1CC[C@]2(CC1)OO[C@]1(O2)C2CC3CC(C2)CC1C3 [OZ336]
P. berghei ANKA strain
  activity (percent reduction of parasitemia): greater than 99%
[4]
  Activity (%) 3 mg/kg SSV po: 98%
[4]; single 10 mg/kg po in SSV
  Activity (%) 10 mg/kg SSV po: 99.93%
  Survival (days) 10 mg/kg SSV po: 9.2 days

## CS(=O)(=O)O.NCCOc1ccc(C2CCC3(CC2)OOC2(O3)C3CC4CC(C3)CC2C4)cc1 (centres unmarked) [compound 323]
P. berghei ANKA strain; [7]
  Survival (days) p.o. SSV: 14.4 days
  Activity (%) p.o. SSV: 66%
P. berghei ANKA strain; [8]
  Survival (days) p.o. SSV: 14.4 days
  Activity (%) p.o. SSV: 99.95%

## c1ncn(C[C@H]2CC[C@]3(CC2)OOC2(O3)C3CC4CC(C3)CC2C4)n1 (some centres unmarked) [OZ235]
[1]
  IC50 (ng/ml) NF54: 2.0 ng/mL (≈ 5.79 nM)
[2]
  IC50 (ng/ml) K1: 1.0 ng/mL (≈ 2.89 nM)
[3]
  ED50: 4.0 mg/kg
  ED90: 7.1 mg/kg
  ED99: 11 mg/kg
[4]
  Activity (%) po: 99.92%
  Activity (%) sc: 97%
  Activity (%) SSVpo: 99.97%
  Survival (days) po: 8.7 days
  Survival (days) sc: 8.0 days
  Survival (days) SSVpo: 9.0 days

## NS(=O)(=O)c1ccc(NCC2CCC3(CC2)OOC2(O3)C3CC4CC(C3)CC2C4)cc1 (centres unmarked) [compound 298]
P. berghei ANKA strain; [7]
  Survival (days) p.o. SSV: 11 days
  Activity (%) p.o. SSV: 93%
P. berghei ANKA strain; [8]
  Survival (days) p.o. SSV: 16.4 days
  Activity (%) p.o. SSV: 99.99%

## CS(=O)(=O)O.NC(=O)CCNCC1CCC2(CC1)OOC1(O2)C2CC3CC(C2)CC1C3 (centres unmarked) [compound 319]
P. berghei ANKA strain; [7]
  Survival (days) p.o. SSV: 13 days
  Activity (%) p.o. SSV: 92%
P. berghei ANKA strain; [8]
  Survival (days) p.o. SSV: 11.2 days
  Activity (%) p.o. SSV: 99.97%

## CN1CCN(C(=O)C[C@H]2CC[C@]3(CC2)OOC2(O3)C3CC4CC(C3)CC2C4)CC1 (some centres unmarked) [OZ227]
[1]
  IC50 (ng/ml) NF54: 0.20/0.20 ng/ml
[2]
  IC50 (ng/ml) K1: 0.20/0.20 ng/ml
[3]
  ED50: 2.3 mg/kg
  ED90: 4.0 mg/kg
  ED99: 6.2 mg/kg
[4]
  Activity (%) po: 99.68%
  Activity (%) sc: 99.84%
  Activity (%) SSVpo: 99.90%
  Survival (days) po: 8.3 days
  Survival (days) sc: 10.7 days
  Survival (days) SSVpo: 9.3 days

## O=C(CC1CCC2(CC1)OOC1(O2)C2CC3CC(C2)CC1C3)N1CCC(O)CC1 (centres unmarked) [compound 297]
P. berghei ANKA strain; [7]
  Survival (days) p.o. SSV: 6.4 days
  Activity (%) p.o. SSV: 22%
P. berghei ANKA strain; [8]
  Survival (days) p.o. SSV: 9.4 days
  Activity (%) p.o. SSV: 89%

## Oc1ccc(C2CCC3(CC2)OOC2(O3)C3CC4CC(C3)CC2C4)cc1 (centres unmarked) [compound 288]
P. berghei ANKA strain; [7]
  Survival (days) p.o. SSV: 8.4 days
  Activity (%) p.o. SSV: 49%
P. berghei ANKA strain; [8]
  Survival (days) p.o. SSV: 10.2 days
  Activity (%) p.o. SSV: 99%

## CCOC(=O)CNCC1CCC2(CC1)OOC1(O2)C2CC3CC(C2)CC1C3.CS(=O)(=O)O (centres unmarked) [compound 290]
P. berghei ANKA strain; [7]
  Survival (days) p.o. SSV: 6.8 days
  Activity (%) p.o. SSV: 14%
P. berghei ANKA strain; [8]
  Survival (days) p.o. SSV: 10.6 days
  Activity (%) p.o. SSV: 93%

## C[C@H]1[C@@H](OCc2ccc(C(=O)O)cc2)O[C@@H]2O[C@@]3(C)CC[C@H]4[C@H](C)CC[C@@H]1[C@@]24OO3 [Artelinate]
[3]
  ED50: 4.8 mg/kg
  ED90: 10 mg/kg
  ED99: 18 mg/kg

## O=C(NC[C@H]1CC[C@]2(CC1)OO[C@]1(O2)C2CC3CC(C2)CC1C3)N1CCNCC1 [OZ329]
P. berghei ANKA strain
  activity (percent reduction of parasitemia): greater than 99%
  infected mice cured: ⅖
[5]
  % reduction of adult worms growth at day 49 after per os application of 400 mg/kg, TWR (%): 15%
  adult worms at day 49, per os 400 mg/kg, DEAD WORM (%): 6%
[1]
  IC50 (ng/ml) NF54: 0.68 ng/mL (≈ 1.68 nM)
[2]
  IC50 (ng/ml) K1: 0.43 ng/mL (≈ 1.06 nM)
[6]
  % reduction of schistosomule growth at day 21 after per os application of 200 mg/kg, FWR (%): 90%
  % reduction of schistosomule growth at day 21 after per os application of 200 mg/kg, TWR (%): 90%

## Cc1ccc(S(=O)(=O)O)cc1.NCCNC(=O)CC1CCC2(CC1)OOC1(O2)C2CC3CC(C2)CC1C3 (centres unmarked) [compound 305]
P. berghei ANKA strain; [7]
  Survival (days) p.o. SSV: 9.6 days
  Activity (%) p.o. SSV: 87%
P. berghei ANKA strain; [8]
  Survival (days) p.o. SSV: 12.2 days
  Activity (%) p.o. SSV: 99.91%

## c1cc(OC[C@H]2CC[C@]3(CC2)OO[C@]2(O3)C3CC4CC(C3)CC2C4)ccn1 [OZ301]
P. berghei ANKA strain
  infected mice cured: ⅕
[4]
  Activity (%) 3 mg/kg SSV po: 97%
[4]; single 10 mg/kg po in SSV
  Activity (%) 10 mg/kg SSV po: 100%

## O=c1ccn(CC2CCC3(CC2)OOC2(O3)C3CC4CC(C3)CC2C4)cc1 (centres unmarked) [compound 302]
P. berghei ANKA strain; [7]
  Survival (days) p.o. SSV: 13.4 days
  Activity (%) p.o. SSV: 87%
P. berghei ANKA strain; [8]
  Survival (days) p.o. SSV: 13.4 days
  Activity (%) p.o. SSV: 99.51%

## NC[C@H]1CC[C@]2(CC1)OOC1(O2)C2CC3CC(C2)CC1C3 (some centres unmarked) [OZ181]
[3]
  ED50: 0.63 mg/kg
  ED90: 1.8 mg/kg
  ED99: 4.0 mg/kg
[4]; 10 mg/kg
  Activity (%) po: 99.98%
  Survival (days) po: 9.0 days
  Survival (days) sc: 11.0 days
[4]
  Activity (%) sc: 100%
  Activity (%) SSVpo: 99.91%
  Survival (days) SSVpo: 10.0 days

## NC1(C(=O)NCC2CCC3(CC2)OOC2(O3)C3CC4CC(C3)CC2C4)CCCC1 (centres unmarked) [compound 317]
P. berghei ANKA strain; [7]
  Survival (days) p.o. SSV: 11.4 days
  Activity (%) p.o. SSV: 73%
P. berghei ANKA strain; [8]
  Survival (days) p.o. SSV: 16.8 days
  Activity (%) p.o. SSV: 100%
